Common to all, as to experiment: growth of human tumour cells (NCI), 48 h
In assay [1] the test system is SF-539.
Assay [2] deals with SF-268.
The subject of assay [3] is UACC-257.
Assay [4] concerns SN12C.
In assay [5] the test system is HCT-116.
Assay [6] relates to A549.
The test system of assay [7] is U-251.
Assay [8] concerns CCRF-CEM.
Assay [9] has as its system 786-0.
In assay [10] the test system is NCI-H522.
Assay [11] relates to HCT-15.
The test system of assay [12] is A498.
The subject of assay [13] is M14.
Assay [14] has as its system HOP-62.
In assay [15] the test system is SW-620.
Assay [16] has as its system SNB-75.
The test system of assay [17] is SK-MEL-28.

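Where inhibition never reached the appropriate level, the endpoint shown equals the highest concentration tested. Otherwise, values were interpolated linearly from a five-concentration, 48-hour dose response in 96-well plates. Here, GI50 denotes the concentration required for 50% inhibition of growth.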 The source made the active and inactive calls. Rule as the data show it: active = GI50 up to about 1.1 µM and inactive = higher. Where only a bound is given, the exact number is not on record here.

Regarding `COc1ccc2c(c1)CC[C@@H]1C2CC[C@]2(C)C(=N\O)/C(=N/O)CC12` (stereo partly drawn), the GI50 in [1] is 18.5 µM (inactive); in assay [2] it was 17.9 µM (inactive); in [3], 16.7 µM (inactive); in assay [4], 17.7 µM (inactive); in assay [5], 16 µM (inactive); in [6] it was 10.1 µM (inactive). The GI50 in assay [7] was 15.4 µM (inactive); in assay [8] it was 9.68 µM (inactive); in [9], 17.5 µM (inactive); in assay [10] it was 2.93 µM (inactive); in assay [11] it was 12.4 µM; in [12] it was 19.1 µM (inactive). Further, the GI50 was 13.4 µM (inactive) in [13], 11.7 µM (inactive) in [14] and 17.6 µM (inactive) in [15].

Regarding `CCOC(=O)NC(=O)c1cn(C2OC(CO)C(O)C2O)c(=O)[nH]c1=O` (stereo not drawn), the GI50 in [1], in assay [2], in [3], in [4], in [5] and in assay [6] was > 100 µM (inactive) throughout. The GI50 in [7] is > 100 µM (inactive); in [9] it was > 100 µM (inactive); in assay [10], > 100 µM (inactive); in assay [11], > 100 µM; in [12], > 100 µM (inactive); in [13], > 100 µM (inactive). Also, the GI50 in assay [16], in assay [14], in assay [15] and in assay [17] was > 100 µM (inactive) throughout.

As for `CNS(=O)(=O)NN(C)S(=O)(=O)c1ccc2ccccc2c1`, the GI50 in [1], in assay [3], in assay [4], in [5], in assay [6] and in assay [7] was > 100 µM (inactive) each time. Besides, the GI50 in [8] is > 100 µM (inactive); in [9], > 100 µM (inactive); in [10] it was > 100 µM (inactive); in [11], > 100 µM; in [12], > 100 µM (inactive); in [13], > 100 µM (inactive). In addition, the GI50 in [16], in [14] and in assay [15] was > 100 µM (inactive) in each case.

For the compound `CCCSS[C@H]1NC(=O)[C@H]1NC(=O)COc1ccccc1`, the GI50 in [1] is 15.3 µM (inactive); in assay [2], 20 µM (inactive); in assay [3], 14.4 µM (inactive); in [4], 15.1 µM (inactive); in [5] it was 10.3 µM (inactive); in [6], 24.4 µM (inactive). Besides, the GI50 is 17.7 µM (inactive) in assay [7]; 3.85 µM (inactive) in [8]; 17.4 µM (inactive) in assay [9]; 11.7 µM in assay [11]; 24.8 µM (inactive) in assay [12]; 12 µM (inactive) in assay [13]. Also, the GI50 in [16] is 21.1 µM (inactive); in assay [14] it was > 100 µM (inactive); in assay [15], 5.74 µM (inactive); in [17] it was 16.6 µM (inactive).

With `COc1c(Sc2ccccc2)cc(Sc2ccccc2)c2cccnc12`, the GI50 in [1] was 26.2 µM (inactive); in [2], 37.3 µM (inactive); in assay [3] it was 18.2 µM (inactive); in [4] it was 28.2 µM (inactive); in assay [5] it was 28.9 µM (inactive); in assay [6], 24 µM (inactive). Besides, the GI50 in assay [7] is 29.2 µM (inactive); in assay [8], 20 µM (inactive); in assay [9], 20.2 µM (inactive); in assay [11], 15.4 µM; in assay [12] it was 29.1 µM (inactive); in [13], 27 µM (inactive). Also, the GI50 in [16] is 19.5 µM (inactive); in assay [14] it was 34.9 µM (inactive); in assay [15] it was 39.2 µM (inactive); in [17], 35.9 µM (inactive).

For the origin of these results see ChEMBL document CHEMBL1201862, “PubChem BioAssay data set” (2004).
